Experiments:
TNF-α = experiment: Extracellular in vivo TNF-α estimation in serum from treated mice after LPS injection (ELISA); settings: 1 mg/kg p.o for 6 days, serum 90 mins after LPS injection, ↑ upregulation
Protocol: BALM male mice aged 6-8 weeks were maintained at 22±2° C. under 12/12 h light dark cycle. Mice received oral treatment of test drugs at graded doses (w/v) for 6 days, followed by intravenous injection of 1 mg/kg (Brieva et al. Immunoferon, a glycoconjugate of natural origin, inhibits LPS-induced TNF-α production and inflammatory responses. International Immunopharmacology (2001) 1, 1979-1987). Six mice were employed in each group and experiments were performed in triplicates. Blood was collected from retro-orbital plexus of the experimental animals and serum was separated. TNF-α, IL-1β production was evaluated by a commercial ELISA kit in serum from treated mice, 90 mins after LPS injection.

CD4+ T cells = experiment: Zymosan peritonitis chronic study: peripheral blood CD4+ T cell population (flow cytometry); type: in vivo, mouse; settings: Withanone 2 mg/kg, day 36
Protocol: (§1) Peritoneal inflammation was induced by Zymosan A (Sigma Chemical) (Masashi et al. Zymosan, but Not Lipopolysaccharide, Triggers Severe and Progressive Peritoneal Injury Accompanied by complement Activation in a Rat Peritonitis Model) was prepared freshly in sterile, 0.9% w/v saline, and 0.5 ml was injected i.p. from day 0 to Day 5. The lymphocyte population in the peripheral blood was determined with a flow cytometer. Cells were phenotyped by flow cytometry with the following primary antibodies: CD4 (FITC) and CD8 (PE). Cells were gated broadly on all live lymphocyte cells, with only debris and multiple cell clusters being excluded. Analysis of mean fluorescence intensity was done and percentage cell population was evaluated. The test drugs were administered for 30 days after the induction of peritonitis. […]
Flow cytometry enables the characterization of cells and subcellular organelles on the basis of size and granularity and a number of different parameters defined by fluorescent probes. […] Fluorochrome labelled monoclonal antibodies directed against co-receptors CD4 and CD8 were used to quantify the lymphocyte subsets in a multiparametric flow cytometric assay. […]

IL-12p70 = experiment: Cytometric Bead Array of peritoneal fluid, chronic zymosan peritonitis: IL-12; type: in vivo, mouse; settings: 2 mg/kg, vs Zymosan control
Protocol: as §1, with “evaluated.” for “evaluated. The test drugs were administered for 30 days after the induction of peritonitis.”
The Cytometric Bead Array (Mouse Inflammation kit) was used to study cytokines in peritoneal fluid. […] Briefly, a mixture of 6 capture bead populations (50 μl) with distinct fluorescence intensities (detected in FL3) coated with antibodies specific for the above cytokines was mixed with each sample/standard (50 μl). […] Following acquisition of data by two colour cytometric analysis, the sample results were analysed using CBA software (BD Biosciences). […] Individual cytokine concentration ratios were indicated by their fluorescent intensities and was determined by interpolation from the corresponding standard curve.

C3b = experiment: Complement activation product C3b in serum (ELISA), chronic zymosan peritonitis; type: in vivo, mouse; settings: 2 mg/kg
Protocol: Peritoneal inflammation was induced by Zymosan A (Sigma Chemical) (Masashi et al. Zymosan, but Not Lipopolysaccharide, Triggers Severe and Progressive Peritoneal Injury Accompanied by complement Activation in a Rat Peritonitis Model) was prepared freshly in sterile, 0.9% w/v saline, and 0.5 ml was injected i.p. from day 0 to Day 5. The lymphocyte population in the peripheral blood was determined with a flow cytometer. Cells were phenotyped by flow cytometry with the following primary antibodies: CD4 (FITC) and CD8 (PE). Cells were gated broadly on all live lymphocyte cells, with only debris and multiple cell clusters being excluded. Analysis of mean fluorescence intensity was done and percentage cell population was evaluated. The test drugs were administered for 30 days after the induction of peritonitis. On 36th day the peritoneal cavity was lavaged with 1.5 ml saline, and after a 30-s gentle manual massage, 0.5 ml exudate was retrieved, centrifuged at 3000 g for 3 min, and frozen at […] prior to cytokine and chemotactic-factor assessment.
Complement activation is a system of more than 30 proteins in the plasma and on cell surfaces. The activation takes place by three pathways, classical, lectin, and alternative. […]

SMILES: CC1=C(C)C(=O)O[C@@H]([C@@H](C)[C@@]2(O)CC[C@H]3[C@@H]4[C@@H]5O[C@@H]5[C@@]5(O)CC=CC(=O)[C@]5(C)[C@H]4CC[C@@]32C)C1 [Withanone]
- Percentage TNF-α inhibition compared to LPS control (TNF-α): 37.05%
- Inhibition of CD4+ compared to T cell population of Zymosan control (CD4+ T cells): 46%
- Inhibition of IL-12 (IL-12p70): 53%
- Inhibition of complement activation product C3b compared to the Zymosan control (C3b): 44%

Reference: patent US20230404969A1, “COMPOSITIONS AND METHOD FOR EFFECTIVE MANAGEMENT OF PERITONITIS” (priority 2022, published 2023)
